Assay results reported in ChEMBL document CHEMBL3826929, “Discovery and Preclinical Evaluation of BMS-711939, an Oxybenzylglycine Based PPARα Selective Agonist” (ACS Med Chem Lett, 2016).

What was measured:
[1] = molecular target: Voltage-gated inwardly rectifying potassium channel KCNH2 (Homo sapiens, UniProt Q12809); test: Inhibition of human ERG by flux-based assay
[2] = Plasma clearance in Balb/c mouse at 5 mg/kg, iv; assay type: ADME, organism-based
[3] = Volume of distribution at steady state in Sprague-Dawley rat at 4 mg/kg, iv; assay type: ADME, organism-based; conditions: in vivo, read-out: Vdss
[4] = Plasma clearance in cynomolgus monkey at 1 mg/kg, iv; assay type: ADME, organism-based, Macaca fascicularis
[5] = Half life in Sprague-Dawley rat at 4 mg/kg, iv; assay type: ADME, organism-based; conditions: in vivo
[6] = Oral bioavailability in Sprague-Dawley rat at 8 mg/kg; assay type: ADME, organism-based; conditions: in vivo
[7] = Half life in cynomolgus monkey at 1 mg/kg, iv; assay type: ADME, organism-based, Macaca fascicularis; conditions: in vivo
Cytochrome P450 3A4 = Cytochrome P450 3A4 (Homo sapiens, UniProt P08684); test: Inhibition of CYP3A4 (unknown origin); assay type: ADME
Sequence of Cytochrome P450 3A4 (P08684 whole entry): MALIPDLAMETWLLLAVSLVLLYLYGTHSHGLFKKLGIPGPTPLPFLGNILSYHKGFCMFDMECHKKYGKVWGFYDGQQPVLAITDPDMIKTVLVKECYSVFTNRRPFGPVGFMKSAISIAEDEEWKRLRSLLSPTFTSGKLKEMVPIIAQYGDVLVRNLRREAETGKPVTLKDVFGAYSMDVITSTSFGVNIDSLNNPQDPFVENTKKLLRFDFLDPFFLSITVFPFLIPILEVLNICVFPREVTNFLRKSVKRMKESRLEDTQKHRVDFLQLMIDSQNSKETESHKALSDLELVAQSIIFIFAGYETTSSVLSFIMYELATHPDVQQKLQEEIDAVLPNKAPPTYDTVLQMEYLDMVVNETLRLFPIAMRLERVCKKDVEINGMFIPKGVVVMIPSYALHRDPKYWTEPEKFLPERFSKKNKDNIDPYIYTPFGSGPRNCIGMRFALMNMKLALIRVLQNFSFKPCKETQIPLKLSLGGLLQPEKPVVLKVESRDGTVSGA

[8] = molecular target: Nuclear receptor subfamily 1 group I member 2 (Homo sapiens, UniProt O75469); test: Activation of PXR (unknown origin); assay type: ADME
Mus musculus [9] = test: Increase in HDL cholesterol level in transgenic mouse expressing human ApoA1 at 50 mg/kg administered qd through oral gavage measured after 10 days relative to vehicle control; assay type: functional
[10] = molecular target: Glucocorticoid receptor (Homo sapiens) (UniProt P04150); test: Agonist activity at human GR by transactivation assay relative to standard compound
Sequence of Glucocorticoid receptor (Homo sapiens) (P04150 whole entry): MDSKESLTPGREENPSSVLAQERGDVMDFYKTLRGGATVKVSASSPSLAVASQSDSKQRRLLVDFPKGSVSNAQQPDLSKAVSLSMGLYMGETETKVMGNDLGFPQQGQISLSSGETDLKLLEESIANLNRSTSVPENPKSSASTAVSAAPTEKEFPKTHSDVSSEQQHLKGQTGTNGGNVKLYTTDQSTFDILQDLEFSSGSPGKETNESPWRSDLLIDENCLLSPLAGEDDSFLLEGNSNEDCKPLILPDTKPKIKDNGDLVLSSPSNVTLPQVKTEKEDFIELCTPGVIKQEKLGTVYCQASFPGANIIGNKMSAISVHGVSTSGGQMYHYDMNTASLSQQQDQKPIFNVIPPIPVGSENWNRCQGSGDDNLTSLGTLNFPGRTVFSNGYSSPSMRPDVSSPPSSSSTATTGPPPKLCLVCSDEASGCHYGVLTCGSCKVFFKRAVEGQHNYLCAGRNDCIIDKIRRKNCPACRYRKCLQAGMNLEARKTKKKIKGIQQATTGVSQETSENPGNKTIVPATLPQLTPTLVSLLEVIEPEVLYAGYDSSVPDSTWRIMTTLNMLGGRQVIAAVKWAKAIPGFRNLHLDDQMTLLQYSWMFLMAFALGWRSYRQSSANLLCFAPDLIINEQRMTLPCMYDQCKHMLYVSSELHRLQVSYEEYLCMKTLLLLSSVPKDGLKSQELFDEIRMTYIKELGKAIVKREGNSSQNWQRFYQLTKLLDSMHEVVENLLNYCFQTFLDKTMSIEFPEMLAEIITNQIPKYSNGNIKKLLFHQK

Retinoid X receptor = Retinoid X receptor (Homo sapiens, UniProt P28702+P48443+P19793); test: Agonist activity at human RXR by transactivation assay; assay type: protein assay
Syrian golden hamster [11] = test: Decrease in plasma triglyceride level in high fat-diet fed syrian golden hamster model of dyslipidemia at 1 mg/kg administered qd through oral gavage measured after 21 days by FPLC analysis relative to control; assay type: functional, Mesocricetus auratus; set-up: scale not given: the % may be the effect or the level left
[12] = molecular target: Retinoid X receptor (Homo sapiens) (UniProt P28702+P48443+P19793); test: Agonist activity at human RXR by transactivation assay relative to standard compound; assay type: protein assay
Sequence of Retinoid X receptor (Homo sapiens) (P19793 whole entry, looked up): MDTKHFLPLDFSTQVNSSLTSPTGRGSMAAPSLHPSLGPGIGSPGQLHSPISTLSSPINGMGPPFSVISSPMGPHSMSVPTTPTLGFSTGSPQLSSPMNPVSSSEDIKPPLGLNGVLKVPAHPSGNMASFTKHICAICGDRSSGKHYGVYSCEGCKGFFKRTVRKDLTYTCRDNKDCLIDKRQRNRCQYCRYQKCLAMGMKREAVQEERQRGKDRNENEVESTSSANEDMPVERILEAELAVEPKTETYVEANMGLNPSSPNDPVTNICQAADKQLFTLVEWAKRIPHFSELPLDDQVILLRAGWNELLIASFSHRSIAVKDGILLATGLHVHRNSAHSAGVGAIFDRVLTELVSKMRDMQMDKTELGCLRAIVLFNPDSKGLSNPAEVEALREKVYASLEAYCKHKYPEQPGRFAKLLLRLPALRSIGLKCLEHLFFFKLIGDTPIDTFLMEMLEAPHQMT
Sequence of Retinoid X receptor (Homo sapiens) (P28702 whole entry, looked up): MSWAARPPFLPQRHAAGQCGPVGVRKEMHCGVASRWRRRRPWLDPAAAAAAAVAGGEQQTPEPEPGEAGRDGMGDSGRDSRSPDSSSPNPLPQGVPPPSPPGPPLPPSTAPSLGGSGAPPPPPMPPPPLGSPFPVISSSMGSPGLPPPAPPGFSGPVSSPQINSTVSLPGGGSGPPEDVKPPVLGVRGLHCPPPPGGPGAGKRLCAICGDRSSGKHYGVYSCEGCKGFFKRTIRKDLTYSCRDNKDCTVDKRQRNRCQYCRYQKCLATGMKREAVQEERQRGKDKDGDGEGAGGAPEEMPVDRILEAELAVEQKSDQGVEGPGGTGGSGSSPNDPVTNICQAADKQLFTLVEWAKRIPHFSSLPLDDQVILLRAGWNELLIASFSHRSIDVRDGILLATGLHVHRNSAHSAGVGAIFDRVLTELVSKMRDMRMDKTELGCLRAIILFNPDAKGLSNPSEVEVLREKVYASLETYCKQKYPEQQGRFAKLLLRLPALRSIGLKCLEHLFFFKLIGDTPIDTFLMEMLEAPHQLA
Sequence of Retinoid X receptor (Homo sapiens) (P48443 whole entry, looked up): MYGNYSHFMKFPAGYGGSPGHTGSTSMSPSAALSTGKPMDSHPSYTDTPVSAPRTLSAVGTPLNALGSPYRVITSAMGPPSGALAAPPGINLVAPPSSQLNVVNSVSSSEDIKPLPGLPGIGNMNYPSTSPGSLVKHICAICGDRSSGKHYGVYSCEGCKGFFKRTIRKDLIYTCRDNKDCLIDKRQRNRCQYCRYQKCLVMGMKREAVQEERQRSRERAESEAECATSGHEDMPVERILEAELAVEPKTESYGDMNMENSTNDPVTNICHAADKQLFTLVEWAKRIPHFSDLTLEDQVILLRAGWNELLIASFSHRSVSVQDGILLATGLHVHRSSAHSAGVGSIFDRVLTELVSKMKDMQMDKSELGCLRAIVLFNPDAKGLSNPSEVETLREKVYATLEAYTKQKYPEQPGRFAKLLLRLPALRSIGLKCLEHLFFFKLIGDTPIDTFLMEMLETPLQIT

[13] = Oral bioavailability in Balb/c mouse at 10 mg/kg; assay type: ADME, organism-based; conditions: in vivo
Syrian golden hamster [14] = test: Decrease in liver cholesterol level in high fat-diet fed syrian golden hamster model of dyslipidemia at 10 mg/kg administered qd through oral gavage measured after 21 days by FPLC analysis relative to control; assay type: functional, Mesocricetus auratus; set-up: scale not given: the % may be the effect or the level left
Syrian golden hamster [15] = test: Decrease in liver triglyceride level in high fat-diet fed syrian golden hamster model of dyslipidemia at 1 mg/kg administered qd through oral gavage measured after 21 days by FPLC analysis relative to control; assay type: functional, Mesocricetus auratus; set-up: scale not given: the % may be the effect or the level left
Syrian golden hamster [16] = test: Decrease in plasma triglyceride level in high fat-diet fed syrian golden hamster model of dyslipidemia at 10 mg/kg administered qd through oral gavage measured after 21 days by FPLC analysis relative to control; assay type: functional, Mesocricetus auratus; set-up: scale not given: the % may be the effect or the level left
Cytochrome P450 2D6 = Cytochrome P450 2D6 (Homo sapiens, UniProt P10635); test: Inhibition of CYP2D6 in human TC5 cells; assay type: ADME, cell-based
Cytochrome P450 2C19 [17] = molecular target: T1, Cytochrome P450 2C19 (Homo sapiens, UniProt P33261); test: Inhibition of CYP2C19 in human TC5 cells; assay type: ADME, cell-based
T1 sequence (P33261 whole entry): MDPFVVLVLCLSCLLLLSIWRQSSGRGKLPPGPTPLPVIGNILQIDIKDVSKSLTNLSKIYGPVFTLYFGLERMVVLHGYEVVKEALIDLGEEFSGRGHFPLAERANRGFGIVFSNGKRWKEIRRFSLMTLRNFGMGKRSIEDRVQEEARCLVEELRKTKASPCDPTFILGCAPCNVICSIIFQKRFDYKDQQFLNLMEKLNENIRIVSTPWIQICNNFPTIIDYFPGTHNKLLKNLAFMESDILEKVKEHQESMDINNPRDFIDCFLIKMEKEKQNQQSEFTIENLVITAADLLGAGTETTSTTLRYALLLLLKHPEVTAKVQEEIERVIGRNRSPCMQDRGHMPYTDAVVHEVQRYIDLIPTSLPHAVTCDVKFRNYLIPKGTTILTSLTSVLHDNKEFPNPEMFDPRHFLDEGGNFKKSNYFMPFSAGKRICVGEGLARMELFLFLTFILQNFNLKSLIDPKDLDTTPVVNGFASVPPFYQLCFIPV

[18] = Oral bioavailability in dog at 2 mg/kg; assay type: ADME, organism-based, Canis lupus familiaris; conditions: in vivo
Homo sapiens [19] = species: Homo sapiens; test: Inhibition of sodium channel (unknown origin) assessed as channel block at 10 uM and 4 Hz by electrophysiological method
Mus musculus [20] = test: Increase in ApoA1 level in transgenic mouse expressing human ApoA1 at 50 mg/kg administered qd through oral gavage measured after 10 days relative to vehicle-treated control; assay type: functional
[21] = AUC (0 to 8 hrs) in dog at 2 mg/kg, po; assay type: ADME, organism-based, Canis lupus familiaris; set-up: dose 2 mg/kg, time < 8 hr, route oral; conditions: in vivo
Syrian golden hamster [22] = test: Decrease in plasma LDL cholesterol level in high fat-diet fed syrian golden hamster model of dyslipidemia at 1 mg/kg administered qd through oral gavage measured after 21 days by FPLC analysis relative to control; assay type: functional, Mesocricetus auratus; set-up: scale not given: the % may be the effect or the level left
[23] = molecular target: Peroxisome proliferator-activated receptor delta (Homo sapiens) (UniProt Q03181); test: Agonist activity against human PPAR-delta by transactivation assay relative to standard compound
Syrian golden hamster [24] = test: Decrease in plasma LDL cholesterol level in high fat-diet fed syrian golden hamster model of dyslipidemia at 10 mg/kg administered qd through oral gavage measured after 21 days by FPLC analysis relative to control; assay type: functional, Mesocricetus auratus; set-up: scale not given: the % may be the effect or the level left
Syrian golden hamster [25] = test: Decrease in liver triglyceride level in high fat-diet fed syrian golden hamster model of dyslipidemia at 3 mg/kg administered qd through oral gavage measured after 21 days by FPLC analysis relative to control; assay type: functional, Mesocricetus auratus; set-up: scale not given: the % may be the effect or the level left
CHO = test: Clastogenecity in CHO cells; assay type: ADME, cell-based, Cricetulus griseus; conditions: chinese hamster
[26] = AUC (0 to 8 hrs) in dog at 1 mg/kg, iv; assay type: ADME, organism-based, Canis lupus familiaris; set-up: dose 1 mg/kg, time < 8 hr, route intravenous; conditions: in vivo
Homo sapiens [27] = species: Homo sapiens; test: Inhibition of sodium channel (unknown origin) assessed as channel block at 10 uM and 1 Hz by electrophysiology method
[28] = molecular target: Liver X receptor (Homo sapiens) (UniProt Q13133+P55055); test: Agonist activity at human LXR by transactivation assay relative to standard compound; assay type: protein assay
Rhesus monkey = test: Cardiovascular toxicity in monkey assessed as change in hemodynamic effect up to 20 mg/kg administered as single dose by telemetry test; assay type: organism-based, Macaca mulatta; conditions: in vivo
[29] = Protein binding in dog plasma; assay type: ADME, cell-free, Canis lupus familiaris; conditions: read-out: PPB (converted)
[30] = Protein binding in human plasma; assay type: ADME, cell-free; conditions: read-out: PPB (converted)
[31] = Cardiovascular toxicity in purkinje fiber (unknown origin) assessed as change in action potential duration at 90% repolarization at 30 uM
[32] = AUC (0 to 8 hrs) in cynomolgus monkey at 1 mg/kg, iv; assay type: ADME, organism-based, Macaca fascicularis; set-up: time < 8 hr, dose 1 mg/kg, route intravenous; conditions: in vivo
Salmonella typhimurium = test: Genotoxicity in Salmonella typhimurium TA100 up to 5000 ug by Ames test; assay type: toxicity, organism-based; conditions: salmonella enterica subsp. enterica serovar typhimurium
[33] = Tmax in Sprague-Dawley rat at 8 mg/kg, po; assay type: ADME, organism-based; conditions: in vivo
[34] = Cmax in Sprague-Dawley rat at 8 mg/kg, po; assay type: ADME, organism-based; set-up: dose 8 mg/kg, route oral; conditions: in vivo
Mus musculus [35] = test: Decrease in triglyceride level in transgenic mouse expressing human ApoA1 at 10 mg/kg administered qd through oral gavage measured after 10 days relative to vehicle control; assay type: functional; set-up: scale not given: the % may be the effect or the level left
[36] = Half life in dog at 1 mg/kg, iv; assay type: ADME, organism-based, Canis lupus familiaris; conditions: in vivo
[37] = Protein binding in rat plasma; assay type: ADME, cell-free; conditions: read-out: PPB (converted)
Syrian golden hamster [38] = test: Decrease in liver cholesterol level in high fat-diet fed syrian golden hamster model of dyslipidemia at 3 mg/kg administered qd through oral gavage measured after 21 days by FPLC analysis relative to control; assay type: functional, Mesocricetus auratus; set-up: scale not given: the % may be the effect or the level left
Cytochrome P450 2C19 [39] = molecular target: T1, Cytochrome P450 2C19; test: Inhibition of CYP2C19 (unknown origin); assay type: ADME
Cytochrome P450 1A2 = Cytochrome P450 1A2 (Homo sapiens, UniProt P05177); test: Inhibition of CYP1A2 (unknown origin); assay type: ADME
Sequence of Cytochrome P450 1A2 (P05177 whole entry): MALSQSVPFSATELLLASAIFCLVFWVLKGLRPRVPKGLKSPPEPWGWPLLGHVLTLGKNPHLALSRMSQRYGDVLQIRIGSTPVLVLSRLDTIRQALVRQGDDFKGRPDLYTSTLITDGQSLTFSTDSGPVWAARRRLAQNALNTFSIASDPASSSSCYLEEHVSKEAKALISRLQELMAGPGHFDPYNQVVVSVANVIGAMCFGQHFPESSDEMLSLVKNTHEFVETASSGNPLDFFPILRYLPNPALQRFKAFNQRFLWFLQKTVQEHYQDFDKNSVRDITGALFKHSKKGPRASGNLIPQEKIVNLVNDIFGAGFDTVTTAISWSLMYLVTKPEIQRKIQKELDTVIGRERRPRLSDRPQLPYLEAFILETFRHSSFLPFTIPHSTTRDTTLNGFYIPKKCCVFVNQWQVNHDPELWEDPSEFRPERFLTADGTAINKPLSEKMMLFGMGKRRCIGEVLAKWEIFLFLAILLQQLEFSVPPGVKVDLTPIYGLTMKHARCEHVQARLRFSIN

[40] = Cmax in Balb/c mouse at 10 mg/kg, po; assay type: ADME, organism-based; set-up: dose 10 mg/kg, route oral; conditions: in vivo
[41] = AUC (0 to 8 hrs) in Sprague-Dawley rat at 8 mg/kg, po; assay type: ADME, organism-based; set-up: time < 8 hr, dose 8 mg/kg, route oral; conditions: in vivo
[42] = Volume of distribution at steady state in dog at 1 mg/kg, iv; assay type: ADME, organism-based, Canis lupus familiaris; conditions: in vivo, read-out: Vdss
Syrian golden hamster [43] = test: Decrease in plasma triglyceride level in high fat-diet fed syrian golden hamster model of dyslipidemia at 3 mg/kg administered qd through oral gavage measured after 21 days by FPLC analysis relative to control; assay type: functional, Mesocricetus auratus; set-up: scale not given: the % may be the effect or the level left
[44] = Tmax in Balb/c mouse at 10 mg/kg, po; assay type: ADME, organism-based; conditions: in vivo

Sequence of Voltage-gated inwardly rectifying potassium channel KCNH2 (Q12809 whole entry): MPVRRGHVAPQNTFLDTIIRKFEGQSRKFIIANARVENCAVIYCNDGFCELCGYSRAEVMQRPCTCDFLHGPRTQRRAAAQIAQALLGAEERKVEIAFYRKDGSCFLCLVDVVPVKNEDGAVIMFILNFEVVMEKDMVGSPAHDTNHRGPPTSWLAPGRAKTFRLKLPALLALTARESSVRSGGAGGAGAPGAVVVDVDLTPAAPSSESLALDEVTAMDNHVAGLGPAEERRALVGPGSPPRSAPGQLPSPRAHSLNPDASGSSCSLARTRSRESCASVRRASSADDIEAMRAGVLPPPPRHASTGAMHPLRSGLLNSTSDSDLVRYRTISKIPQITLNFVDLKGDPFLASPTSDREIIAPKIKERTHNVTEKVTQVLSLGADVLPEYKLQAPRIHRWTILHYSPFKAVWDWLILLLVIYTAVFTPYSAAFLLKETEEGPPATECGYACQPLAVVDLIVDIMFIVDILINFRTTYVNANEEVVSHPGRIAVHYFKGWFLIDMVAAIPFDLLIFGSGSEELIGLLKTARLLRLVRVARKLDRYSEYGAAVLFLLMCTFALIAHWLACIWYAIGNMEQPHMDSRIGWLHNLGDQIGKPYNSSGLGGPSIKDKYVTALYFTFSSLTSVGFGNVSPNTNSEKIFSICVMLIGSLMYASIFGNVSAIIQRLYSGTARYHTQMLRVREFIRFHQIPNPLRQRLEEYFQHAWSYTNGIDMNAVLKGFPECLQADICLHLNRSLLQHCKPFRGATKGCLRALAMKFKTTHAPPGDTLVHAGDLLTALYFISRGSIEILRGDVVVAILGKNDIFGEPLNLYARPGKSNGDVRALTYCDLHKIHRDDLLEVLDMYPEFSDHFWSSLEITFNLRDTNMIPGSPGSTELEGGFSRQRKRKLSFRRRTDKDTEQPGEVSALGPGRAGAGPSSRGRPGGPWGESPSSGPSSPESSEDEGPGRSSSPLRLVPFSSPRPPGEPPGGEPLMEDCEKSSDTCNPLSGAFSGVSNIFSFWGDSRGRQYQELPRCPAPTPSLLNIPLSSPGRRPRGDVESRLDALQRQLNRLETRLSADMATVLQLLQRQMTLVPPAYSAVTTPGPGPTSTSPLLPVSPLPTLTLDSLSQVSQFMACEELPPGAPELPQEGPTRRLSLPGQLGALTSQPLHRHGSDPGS

SMILES: COC(=O)N(CC(=O)O)Cc1cc(OCc2nc(-c3ccc(Cl)cc3)oc2C)ccc1F
- IC50 [1]: > 80 µM
- clearance [2]: 13.8 mL/min/kg
- Vd [3]: 2.2 L/kg
- clearance [4]: 5.9 mL/min/kg
- half-life [5]: 3.3 h
- bioavailability [6]: 100%
- half-life [7]: 26.3 h
- IC50 (Cytochrome P450 3A4): > 40 µM
- EC60 [8]: > 50 µM
- Activity (Mus musculus [9]): 109%
- Efficacy [10]: < 15%
- EC50 (Retinoid X receptor): > 25 µM
- Activity (Syrian golden hamster [11]): 50%
- Efficacy [12]: < 15%
- bioavailability [13]: 66%
- Activity (Syrian golden hamster [14]): 67.5%
- Activity (Syrian golden hamster [15]): 18.7%
- Activity (Syrian golden hamster [16]): 85%
- IC50 (Cytochrome P450 2D6): > 150 µM
- IC50 (Cytochrome P450 2C19 [17]): > 150 µM
- bioavailability [18]: 59%
- inhibition (Homo sapiens [19]): 14%
- Activity (Mus musculus [20]): 747%
- AUC(0-t) at 8 h [21]: 4 µM·h
- Activity (Syrian golden hamster [22]): 24%
- Efficacy [23]: < 15%
- Activity (Syrian golden hamster [24]): 87%
- Activity (Syrian golden hamster [25]): 39.8%
- Activity (CHO): Non-toxic
- AUC(0-t) at 8 h [26]: 3.5 µM·h
- inhibition (Homo sapiens [27]): 12%
- Efficacy [28]: < 15%
- Activity (Rhesus monkey): Non-toxic
- fraction unbound [29]: 0.005
- fraction unbound [30]: 0.003
- Activity [31]: -5.4%
- AUC(0-t) at 8 h [32]: 7.5 µM·h
- Activity (Salmonella typhimurium): Non-toxic
- Tmax [33]: 0.3 h
- Cmax [34]: 14.9 µM
- Activity (Mus musculus [35]): 23.5%
- half-life [36]: 5.5 h
- fraction unbound [37]: 0.004
- Activity (Syrian golden hamster [38]): 56.8%
- IC50 (Cytochrome P450 2C19 [39]): > 40 µM
- IC50 (Cytochrome P450 1A2): > 40 µM
- Cmax [40]: 22.7 µM
- AUC(0-t) at 8 h [41]: 32 µM·h
- Vd [42]: 2.1 L/kg
- Activity (Syrian golden hamster [43]): 74%
- Tmax [44]: 0.25 h
